Data taken from patent publication US9695155B2, “Herbicidal substituted pyrimidinyloxy benzene compounds” (E. I. DU PONT DE NEMOURS AND COMPANY, priority 2013, dated 2017).

Legend:
[1] = tested on: pigweed; experiment: Test A preemergence; assay type: in vivo, Amaranthus retroflexus; conditions: Amaranthus retroflexus, pre-emergence
Procedure, shortened: (§1)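 Pre- and postemergence greenhouse screen. Soil: loam + sand. Spray carrier: solvent mixture, non-phytotoxic, with surfactant. Post timing at 1–2 leaves, height 2–10 cm. Readout: visual injury on a 0–100 scale roughly 10 days after application, untreated plants as reference.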

[2] = tested on: velvetleaf; experiment: Test A preemergence; assay type: in vivo, Abutilon theophrasti
Procedure, shortened: as §1

[3] = tested on: morningglory; experiment: Test A postemergence; assay type: in vivo, Ipomoea spp.; conditions: Ipomoea, post-emergence, 240 h, 0 to 100 scale where 0 is no effect and 100 is complete control, read-out: Plant response rating, Morningglory
Procedure, shortened: as §1

[4] = tested on: pigweed; experiment: Test A postemergence; assay type: in vivo, Amaranthus retroflexus; conditions: Amaranthus retroflexus, post-emergence, 0 to 100 scale where 0 is no effect and 100 is complete control, read-out: Plant response rating, Pigweed
Procedure, shortened: as §1

[5] = tested on: sedge, umbrella; experiment: Test B flooded paddy test; assay type: in vivo, Cyperus difformis; conditions: Cyperus difformis, Flood, 250 g ai/ha; 0 to 100 scale where 0 is no effect and 100 is complete control; read-out: Plant response rating, Sedge, Umbrella
Procedure, shortened: (§2)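 Compound added straight to paddy water, with pots kept flooded 3 cm above soil, on plants grown to the 2-leaf stage. Visual scoring 0-100 (100 = complete control) against untreated controls after 13 to 15 greenhouse days.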

[6] = tested on: Heteranthera limosa; experiment: Test B flooded paddy test; assay type: in vivo; conditions: Heteranthera limosa, Flood, 250 g ai/ha; 0 to 100 scale where 0 is no effect and 100 is complete control; read-out: Plant response rating, Ducksalad
Procedure, shortened: as §2

[7] = tested on: barnyardgrass; experiment: Test B flooded paddy test; assay type: in vivo, Echinochloa crus-galli; conditions: Echinochloa crus-galli; Flood, 250 g ai/ha; 0 to 100 scale where 0 is no effect and 100 is complete control; read-out: Plant response rating, Barnyardgrass
Procedure, shortened: as §2

[8] = tested on: wheat, winter; experiment: Test C postemergence; assay type: in vivo, Triticum aestivum; conditions: Triticum aestivum, post-emergence
Procedure, shortened: (§3)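 Visual ratings on a 0–100 scale (100 = complete control) were made versus untreated controls after 13–15 greenhouse days. Chemicals in a surfactant-containing non-phytotoxic solvent were applied either preemergence to seeds in loam–sand soil or postemergence to 1- to 4-leaf plants 2–18 cm tall.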

[9] = tested on: corn; experiment: Test C postemergence; assay type: in vivo, Zea mays; conditions: Zea mays, post-emergence
Procedure, shortened: as §3

[10] = tested on: large (Lg) crabgrass; experiment: Test C postemergence; assay type: in vivo, Digitaria sanguinalis; conditions: Digitaria sanguinalis, post-emergence
Procedure, shortened: as §3

[11] = tested on: johnsongrass; experiment: Test C postemergence; assay type: in vivo, Sorghum halepense; conditions: Sorghum halepense, post-emergence
Procedure, shortened: as §3

[12] = tested on: barnyardgrass; experiment: Test C postemergence; assay type: in vivo, Echinochloa crus-galli; conditions: Echinochloa crus-galli, post-emergence
Procedure, shortened: as §3

[13] = tested on: oilseed rape; experiment: Test C postemergence; assay type: in vivo, Brassica napus; conditions: Brassica napus, post-emergence
Procedure, shortened: as §3

[14] = tested on: waterhemp; experiment: Test C postemergence; assay type: in vivo, Amaranthus rudis; conditions: Amaranthus tuberculatus, post-emergence
Procedure, shortened: as §3

[15] = tested on: chickweed; experiment: Test C postemergence; assay type: in vivo, Stellaria media; conditions: Stellaria media, post-emergence
Procedure, shortened: as §3

## N#Cc1cccc(Oc2ncc(F)cn2)c1-n1cc(C(F)(F)F)cn1 [Compound 79, 3-[(5-fluoro-2-pyrimidinyl)oxy]-2-[4-(trifluoromethyl)-1H-pyrazol-1-yl]benzonitrile]
[1]; 125 g ai/ha, 0 to 100 scale where 0 is no effect and 100 is complete control, read-out: Plant response rating, Pigweed
  pest or weed control at 125 g/ha: 100%
[1]; 240 h, 500 g ai/ha, 0 to 100 scale, 0 no effect, 100 complete control, approx. 10 days, read-out: Pigweed plant response rating
  pest or weed control at 500 g/ha: 100%
[2]; 125 g ai/ha, 0 to 100 scale where 0 is no effect and 100 is complete control
  Plant response rating, Velvetleaf: 100
[2]; Abutilon theophrasti, pre-emergence, 240 h, 500 g ai/ha, 0 to 100 scale, 0 no effect, 100 complete control, approx. 10 days, read-out: Velvetleaf plant response rating
  pest or weed control at 500 g/ha: 100%
[3]; 125 g ai/ha
  pest or weed control at 125 g/ha: 100%
[3]; 500 g ai/ha
  pest or weed control at 500 g/ha: 100%
[4]; 125 g ai/ha
  pest or weed control at 125 g/ha: 100%
[4]; 500 g ai/ha
  pest or weed control at 500 g/ha: 100%
[5]
  pest or weed control at 250 g/ha: 95%
[6]
  pest or weed control at 250 g/ha: 95%
[7]
  pest or weed control at 250 g/ha: 40%
[8]; 125 g ai/ha, postemergence, read-out: Plant response rating (0 to 100), Wheat
  plant injury at 125 g/ha: 5%
[8]; 250 g ai/ha, postemergence, read-out: Plant response rating (0 to 100), Wheat
  plant injury at 250 g/ha: 35%
[8]; Postemergence, 31 g ai/ha, scale 0 to 100 (0 no effect, 100 complete control), 13 to 15 days, read-out: Plant response rating, Wheat
  plant injury at 31 g/ha: 0%
[8]; Postemergence, 62 g ai/ha, scale 0 to 100 (0 no effect, 100 complete control), read-out: Plant response rating, Wheat
  plant injury at 62 g/ha: 5%
[9]; 125 g ai/ha, postemergence, read-out: Plant response rating (0 to 100), Corn
  plant injury at 125 g/ha: 15%
[9]; 250 g ai/ha, postemergence, read-out: Plant response rating (0 to 100), Corn
  plant injury at 250 g/ha: 35%
[9]; Postemergence, 31 g ai/ha, scale 0 to 100 (0 no effect, 100 complete control), 13 to 15 days
  Corn plant response rating (crop injury, 0 = no effect, 100 = complete kill) at 31 g/ha: 5%
[9]; Postemergence, 62 g ai/ha, scale 0 to 100 (0 no effect, 100 complete control)
  Corn plant response rating (crop injury, 0 = no effect, 100 = complete kill) at 62 g/ha: 5%
[10]; 125 g ai/ha, postemergence, read-out: Plant response rating (0 to 100), Crabgrass, Large
  pest or weed control at 125 g/ha: 30%
[10]; 250 g ai/ha, postemergence, read-out: Plant response rating (0 to 100), Crabgrass, Large
  pest or weed control at 250 g/ha: 65%
[10]; Postemergence, 31 g ai/ha, scale 0 to 100 (0 no effect, 100 complete control), 13 to 15 days, read-out: Plant response rating, Crabgrass, Large
  pest or weed control at 31 g/ha: 20%
[10]; Postemergence, 62 g ai/ha, scale 0 to 100 (0 no effect, 100 complete control), read-out: Plant response rating, Crabgrass, Large
  pest or weed control at 62 g/ha: 20%
[11]; 125 g ai/ha, postemergence, read-out: Plant response rating (0 to 100), Johnsongrass
  pest or weed control at 125 g/ha: 40%
[11]; 250 g ai/ha, postemergence, read-out: Plant response rating (0 to 100), Johnsongrass
  pest or weed control at 250 g/ha: 85%
[11]; Postemergence, 31 g ai/ha, scale 0 to 100 (0 no effect, 100 complete control), 13 to 15 days, read-out: Plant response rating, Johnsongrass
  pest or weed control at 31 g/ha: 5%
[11]; Postemergence, 62 g ai/ha, scale 0 to 100 (0 no effect, 100 complete control), read-out: Plant response rating, Johnsongrass
  pest or weed control at 62 g/ha: 10%
[12]; 125 g ai/ha, postemergence, read-out: Plant response rating (0 to 100), Barnyardgrass
  pest or weed control at 125 g/ha: 20%
[12]; 250 g ai/ha, postemergence, read-out: Plant response rating (0 to 100), Barnyardgrass
  pest or weed control at 250 g/ha: 75%
[12]; Postemergence, 31 g ai/ha, scale 0 to 100 (0 no effect, 100 complete control), 13 to 15 days, read-out: Plant response rating, Barnyardgrass
  pest or weed control at 31 g/ha: 5%
[12]; Postemergence, 62 g ai/ha, scale 0 to 100 (0 no effect, 100 complete control), read-out: Plant response rating, Barnyardgrass
  pest or weed control at 62 g/ha: 5%
[13]; 125 g ai/ha, postemergence, read-out: Plant response rating (0 to 100), Oilseed Rape
  plant injury at 125 g/ha: 50%
[13]; 250 g ai/ha, postemergence, read-out: Plant response rating (0 to 100), Oilseed Rape
  plant injury at 250 g/ha: 90%
[13]; Postemergence, 31 g ai/ha, scale 0 to 100 (0 no effect, 100 complete control), 13 to 15 days, read-out: Plant response rating, Oilseed Rape
  plant injury at 31 g/ha: 30%
[13]; Postemergence, 62 g ai/ha, scale 0 to 100 (0 no effect, 100 complete control), read-out: Plant response rating, Oilseed Rape
  plant injury at 62 g/ha: 50%
[14]; 125 g ai/ha, postemergence, read-out: Plant response rating (0 to 100), Waterhemp
  pest or weed control at 125 g/ha: 90%
[14]; 250 g ai/ha, postemergence, read-out: Plant response rating (0 to 100), Waterhemp
  pest or weed control at 250 g/ha: 100%
[14]; Postemergence, 31 g ai/ha, scale 0 to 100 (0 no effect, 100 complete control), 13 to 15 days, read-out: Plant response rating, Waterhemp
  pest or weed control at 31 g/ha: 75%
[14]; Postemergence, 62 g ai/ha, scale 0 to 100 (0 no effect, 100 complete control), read-out: Plant response rating, Waterhemp
  pest or weed control at 62 g/ha: 80%
[15]; 125 g ai/ha, postemergence, read-out: Plant response rating (0 to 100), Chickweed
  pest or weed control at 125 g/ha: 90%
[15]; 250 g ai/ha, postemergence, read-out: Plant response rating (0 to 100), Chickweed
  pest or weed control at 250 g/ha: 95%
[15]; Postemergence, 31 g ai/ha, scale 0 to 100 (0 no effect, 100 complete control), 13 to 15 days, read-out: Plant response rating, Chickweed
  pest or weed control at 31 g/ha: 50%
[15]; Postemergence, 62 g ai/ha, scale 0 to 100 (0 no effect, 100 complete control), read-out: Plant response rating, Chickweed
  pest or weed control at 62 g/ha: 65%
